The source of these data is patent US20040268437A1, “Method for biosynthesizing the serotonin derivatives in plants” (CHONNAM NATIONAL UNIVERSITY, priority 2003, published 2004).

Entries after “also recorded” stand apart in the source; their conditions may differ.

Experiment [1] relates to Rice plants (Variety: Nakdong). Briefly: Soil treatment of rice with inducers; serotonin derivative content in seeds by HPLC. The class given is in vivo. The procedure: Rice plants (Variety: Nakdong) having been cultivated in the rice field were treated with inducers for serotonin derivative biosynthesis and then biosynthesis of the serotonin derivatives was investigated.
Inducers for serotonin derivative biosynthesis were prepared by dissolving tyramine, tryptamine, cinnamic acid, coumaric acid, caffeic acid and ferulic acid (Sigma-Aldrich, Korea) in water respectively to make each concentration 100 μM. And then the soil where rice plants (about 40 days after heading) had been growing was treated once with each inducer for serotonin derivative biosynthesis at the rate of 300,000 L/ha, followed by further cultivation for 20 days.
As a control group, rice plant which had been cultivated under the same conditions except the treatment with inducers for serotonin derivative biosynthesis was used.
After harvesting rice, seeds of the rice were peeled to obtain brown rice. N-(hydroxycinnamoyl)-amines were extracted from 1 g of the brown rice by known method (Ishihara et al., Biosci. Biotechnol. Biochem. 64, 1025-1031, 2000), and then, HPLC was performed.
Coumaroylserotonin and feruloylserotonin included in the extract of seeds of rice, treated with inducers for serotonin derivative biosynthesis, were quantified by HPLC using a standard substance synthesized by a well-known method (Villegas & Brodelius, Physiol. Plant. 78, 414-420, 1990).

The subject of experiment [2] is Hot pepper (Variety: Pungcheon). The experiment is described as follows: Soil treatment of hot pepper with inducers; serotonin derivative content in sarcocarps by HPLC. It is filed as in vivo. On the procedure: Hot pepper (Variety: Pungcheon) was treated with inducers for serotonin derivative biosynthesis, followed by an examination of biosynthesis of serotonin derivatives.
Particularly, inducers for serotonin derivative biosynthesis were prepared by dissolving tyramine, tryptamine, cinnamic acid, coumaric acid, caffeic acid and ferulic acid in water respectively to make each concentration 100 μM. And then the soil where rice plants (about 40 days after heading) had been growing was treated once with each inducer for serotonin derivative biosynthesis at the rate of 300,000 L/ha, followed by further cultivation for 20 days.
The ripe sarcocarps of hot peppers were obtained to investigate the content of serotonin derivatives by the same method as used in the above Example <1-1>. Control group hot pepper was cultivated under the same condition as the experimental group hot pepper except the treatment with inducers for serotonin derivative biosynthesis.

For experiment [3], the system named is transgenic rice plants over-expressing THT. The experiment is described as follows: Transgenic rice grown in medium with tyramine or coumaric acid; content in leaves and stems. It is filed as in vivo. As to conditions: for Coumaroyl serotonin / Feruloyl serotonin / Total content of serotonin derivatives: medium with 50 μM tyramine, 2 weeks.
In experiment [4] the test system is transgenic rice plants (T14) over-expressing THT. The experiment is described as follows: Soil treatment of transgenic rice T14 with inducers; serotonin derivative content in seeds. The class given is in vivo. On the procedure:
Among T2 generations of transgenic rice plants, T14 was transplanted in the soil, to which inducers for serotonin derivative biosynthesis were treated. After cultivation, the contents of serotonin derivatives in seeds of the transgenic rice plants were investigated.
As inducers for serotonin derivative biosynthesis, tyramine, tryptamine, cinnamic acid, coumaric acid, caffeic acid and ferulic acid were used. Precisely, the inducers for serotonin derivative biosynthesis were dissolved in water, making each concentration 100 μM. Then, the solutions were added at the rate of 300,000 L/ha, to the soil where rice plants (about 40 days after heading) were growing. The plants were cultivated for 20 more days.
The seeds of the plants cultivated above were collected, and the content of serotonin derivatives in them was investigated with the same method as used in the Example <1-1>, which was compared with that in seeds of wild type control rice plants.

Experiment [5] relates to wild type control rice plants. Briefly: Wild-type control rice grown in medium with tyramine; content in leaves and stems. It is filed as in vivo. As to conditions: Wild-type control (W); medium with 50 μM tyramine, 2 weeks. The procedure:
(§1) It was investigated whether serotonin derivatives was biosynthesized in transgenic rice plants over-expressing THT when cultivated in a medium supplemented with serotonin inducers, tyramine or coumaric acid. T2 generations of the transgenic rice seeds were sown on MS medium (Duchefa Biochemie, Netherlands) supplemented with 50 μM of tyramine or coumaric acid, substrates of hot pepper THT enzyme, which were then further cultured in a sterilized condition with 12 hour light and 12 hour dark cycle. 2 weeks later, hydroxycinnamoyl amines were extracted from leaves of T2 generations of transgenic rice plants and wild type control rice plants, respectively, according to the same procedure as used in the above Example <1-1>, then, HPLC was performed for analysis.

The test system of the next experiment is transgenic control rice. Briefly: Transgenic control rice (pGA1611 vector without THT gene) grown in medium with tyramine; content in leaves and stems. The class given is in vivo. As to conditions: Transgenic control (TC); medium with 50 μM tyramine, 2 weeks. On the procedure: In the meantime, transgenic control rice was prepared by transfecting rice plant with pGA1611 vector without hot pepper THT gene, and other preparation procedures for a control were the same as for an experimental group.
as §1

The subject of the next experiment is potato THT. As to conditions: coumaroyl-CoA used as a substrate instead of feruloyl-CoA; cited from earlier work.
Experiment [6] has as its system recombinant hot pepper THT. As to conditions: amine substrates; cited from earlier work.
Experiment [7] concerns Hot pepper (Variety: Pungcheon). The experiment is described as follows: Serotonin sprayed on hot pepper sarcocarps; serotonin derivative content by HPLC. It is filed as in vivo. On the procedure:
Hot pepper (Variety: Pungcheon) was treated with serotonin to investigate biosynthesis of serotonin derivatives.
Serotonin solution (prepared by dissolving serotonin in water to make 1 mM concentration) was sprayed on sarcocarps of hot pepper at the rate of 10,000 L/ha. 72 hours after spraying, sarcocarps were taken to investigate the content of serotonin derivatives, for which the same method in the Example 1 was used. Sarcocarps of hot pepper not treated with serotonin were used as a control.

A further experiment deals with hot pepper THT enzyme. Briefly: In vitro enzyme reaction of purified hot pepper THT with serotonin, product by HPLC. It is filed as biochemical, hot pepper (Capsicum annuum). On the procedure: In order to confirm whether hot pepper THT enzyme could use serotonin as an amine substrate, hot pepper THT protein, in which 6 histidines were attached on carboxy-terminal, was purified by affinity chromatography (Back et al., Plant Cell Physiol. 42, 475-481, 2001) and used for the experiment. Particularly, 1 μg of the purified hot pepper THT enzyme, 1 mM of feruloyl-CoA (Sigma-Aldrich, Korea) and 10 mM of serotonin (Sigma-Aldrich, Korea) were mixed together, followed by an enzyme reaction at 30° C. for 10 minutes. Upon completing the reaction, the reaction product was analyzed by HPLC.

[8] abbreviates: inducer 100 μM to soil, 300,000 L/ha, 20 days.
The mark [9] stands for this setting: Mean of transgenic rice lines T9-T17.
Where [10] appears, read: seeds of transgenic rice T14, inducer 100 μM to soil, 300,000 L/ha, 20 days.
Setting [11] is: sarcocarps of hot pepper, 1 mM serotonin sprayed, 10,000 L/ha, 72 hours.

On to `NCCc1ccc(O)cc1` [Tyramine, tyramine], for which the “Rank of inducers by serotonin derivatives produced” value in experiment [1] (in words) is recorded as “second most”; in [2] (in words), “third most”. Moreover, the “Content of serotonin derivatives: Coumaroyl Serotonin” value in [1] (setting [8]) is 19 ng/1 g seed; in experiment [2] (setting [8]), 150 ng/1 g sarcocarps. Moreover, the “Content of serotonin derivatives: Feruloyl serotonin” value is recorded as 54 ng/1 g seed in [1] (setting [8]) and 210 ng/1 g sarcocarps in experiment [2] (setting [8]). Also, the entries for the “Content of serotonin derivatives: Total content” value in [1] (setting [8]) and in experiment [2] (setting [8]) were 73 ng/1 g seed and 360 ng/1 g sarcocarps, respectively. Moreover, the Coumaroyl serotonin in experiment [3] (setting [9]) was 78 μg/g leaves and stems; in experiment [3] (Transgenic rice T9) it was 24 μg/g leaves and stems; in experiment [3] (Transgenic rice T10) it was 86 μg/g leaves and stems; in experiment [3] (Transgenic rice T13) it was 224 μg/g leaves and stems; in [3] (Transgenic rice T14), 46 μg/g leaves and stems; in experiment [3] (Transgenic rice T16), 50 μg/g leaves and stems. In addition, the Coumaroyl serotonin in experiment [3] (Transgenic rice T17) is 36 μg/g leaves and stems; in [5] it was 0 μg/g leaves and stems; with transgenic control rice it was 0 μg/g leaves and stems. Further, the Feruloyl serotonin in [3] (setting [9]) is 96 μg/g leaves and stems; in experiment [3] (Transgenic rice T9) it was 24 μg/g leaves and stems; in [3] (Transgenic rice T10) it was 114 μg/g leaves and stems; in experiment [3] (Transgenic rice T13) it was 200 μg/g leaves and stems; in [3] (Transgenic rice T14), 78 μg/g leaves and stems; in experiment [3] (Transgenic rice T16) it was 70 μg/g leaves and stems. For the same compound, the Feruloyl serotonin was 92 μg/g leaves and stems in [3] (Transgenic rice T17); 1 μg/g leaves and stems in experiment [5]; 1 μg/g leaves and stems in the experiment on transgenic control rice. The “Total content of serotonin derivatives” value is 174 μg/g leaves and stems in [3] (setting [9]); 48 μg/g leaves and stems in experiment [3] (Transgenic rice T9); 200 μg/g leaves and stems in [3] (Transgenic rice T10); 424 μg/g leaves and stems in experiment [3] (Transgenic rice T13); 124 μg/g leaves and stems in experiment [3] (Transgenic rice T14); 120 μg/g leaves and stems in experiment [3] (Transgenic rice T16). Also, the “Total content of serotonin derivatives” value in [3] (Transgenic rice T17) was 128 μg/g leaves and stems; in [5], 1 μg/g leaves and stems; in the experiment on transgenic control rice, 1 μg/g leaves and stems. Besides, the “Coumaroyltyramine and feruloyltyramine in the extract” value in experiment [3] (transgenic rice in medium with 50 μM tyramine or coumaric acid, HPLC) was “neither coumaroyltyramine nor feruloyltyramine”. Further, in experiment [4] (setting [10]), the “Content of serotonin derivative: Coumaroyl serotonin” value is 314 ng/g seeds. Also, in experiment [4] (setting [10]), the “Content of serotonin derivative: Feruloyl serotonin” value was determined as 684 ng/g seeds. In addition, in [4] (setting [10]), the “Content of serotonin derivative: Total content” value is listed as 998 ng/g seeds. In addition, the “Rank of inducers by content of serotonin derivatives” value in experiment [4] (seeds of transgenic rice plants, in words) is listed as “the highest”. The “Increase of substrate specificity to tyramine” value in the experiment with potato THT is on record as “more than 10 times”. Moreover, in [6], the “Maximum reaction velocity (Vmax) relative to octopamine” value is given as 1.5 fold.
For the compound `NCCc1c[nH]c2ccc(O)cc12` [Serotonin, serotonin], the Serotonin derivatives detected result in experiment [7] (sarcocarps of hot pepper treated with serotonin, in words) is “a large amount; also recorded: detected a lot”. In [7] (setting [11]), the “Content of serotonin derivatives: Coumaroyl Serotonin” value worked out at 1538 ng/1 g sarcocarps, the “Content of serotonin derivatives: Feruloyl serotonin” value was determined as 1028 ng/1 g sarcocarps and the “Content of serotonin derivatives: Total content” value is reported as 2566 ng/1 g sarcocarps. Besides, the “Serotonin used as amine substrate, product feruloylserotonin” value with hot pepper THT enzyme (1 μg THT, 1 mM feruloyl-CoA, 10 mM serotonin, 30° C., 10 minutes) is “uses serotonin as an amine substrate; also recorded: biosynthesis of feruloylserotonin was confirmed”. The “Serotonin used as amine substrate, product coumaroylserotonin” value in the experiment on hot pepper THT enzyme (coumaroyl-CoA and serotonin as substrates (not shown)) is reported as “synthesized coumaroylserotonin; also recorded: biosynthesis of coumaroylserotonin by hot pepper THT enzyme was also confirmed”.
